Results: ChEMBL document CHEMBL4033728, “Synthesis and structure-activity relationship study of novel quinazolinone-based inhibitors of MurA” (Bioorg Med Chem Lett, 2017)
Converted amounts (≈) assume the structure as drawn.

Experiments:
Escherichia coli [1] = test: Antibacterial activity against Escherichia coli ATCC 25922 incubated for 18 to 24 hrs by broth microdilution method; type: functional
[2] = Inhibition of Escherichia coli MurA using UDP-GlcNAc and PEP as substrate incubated for 15 mins by Malachite green method
Staphylococcus aureus = test: Antibacterial activity against Staphylococcus aureus ATCC 29213 incubated for 18 to 24 hrs by broth microdilution method; type: functional
Escherichia coli [3] = test: Inhibition of Escherichia coli MurA assessed as residual enzyme activity at 100 uM using UDP-GlcNAc and PEP as substrate incubated for 15 mins by Malachite green method

Row | SMILES | MIC (Escherichia coli [1]) | IC50 [2] | MIC (Staphylococcus aureus) | Activity (Escherichia coli [3])
1 | O=c1[nH]c(-c2cccc(OCc3ccc(F)cc3)c2)nc2ccccc12 | > 128 µg/mL | 19 µM | > 128 µg/mL | –
2 | O=c1[nH]c(-c2cccc(OCc3ccccc3)c2)nc2ccccc12 | > 128 µg/mL | 23 µM | > 128 µg/mL | –
3 | O=c1[nH]c(-c2ccc(O)cc2)nc2ccsc12 | > 128 µg/mL | – | > 128 µg/mL | 80%
4 | Oc1nc(-c2cccs2)nc2ccccc12 | > 128 µg/mL | – | > 128 µg/mL | 83%
5 | O=c1[nH]c(-c2ccc([N+](=O)[O-])o2)nc2ccccc12 | 1 µg/mL (≈ 3.89 µM) | 47 µM | 8 µg/mL (≈ 31.1 µM) | –
6 | Cc1ccc(-c2nc3ccccc3c(=O)[nH]2)o1 | > 128 µg/mL | 81 µM | > 128 µg/mL | –
7 | O=c1[nH]c(-c2cccc(OCc3ccc(Cl)cc3)c2)nc2ccccc12 | > 128 µg/mL | 8 µM | > 128 µg/mL | –
8 | O=c1c2ccccc2nc(-c2ccco2)n1CCO | > 128 µg/mL | – | > 128 µg/mL | 91%
9 | O=C(O)c1cccc(COc2ccc(-c3nc4ccccc4c(=O)[nH]3)cc2)c1 | > 128 µg/mL | – | > 128 µg/mL | 85%
10 | O=c1[nH]c(-c2ccc(CO)o2)nc2ccccc12 | > 128 µg/mL | – | > 128 µg/mL | 99%
11 | O=c1[nH]c(-c2ccc(-c3ccccc3)cc2)nc2ccccc12 | > 128 µg/mL | 21 µM | > 128 µg/mL | –
12 | COC(=O)c1cccc(COc2ccc(-c3nc4ccccc4c(=O)[nH]3)cc2)c1 | > 128 µg/mL | – | > 128 µg/mL | 100%
13 | COC(=O)c1ccc(COc2ccc(-c3nc4ccccc4c(=O)[nH]3)cc2)cc1 | > 128 µg/mL | – | > 128 µg/mL | 100%
14 | O=c1[nH]c(-c2ccc(-c3ccccc3)s2)nc2ccccc12 | > 128 µg/mL | 17 µM | > 128 µg/mL | –
15 | Oc1nc(-c2ccncc2)nc2ccccc12 | > 128 µg/mL | – | > 128 µg/mL | 82%
16 | O=c1[nH]c(-c2c[nH]cn2)nc2ccccc12 | > 128 µg/mL | – | > 128 µg/mL | 88%
17 | O=C(O)c1ccc(COc2cccc(-c3nc4ccccc4c(=O)[nH]3)c2)cc1 | > 128 µg/mL | – | > 128 µg/mL | 85%
18 | O=c1[nH]c(-c2ccco2)nc2ccccc12 | > 128 µg/mL | 101 µM | > 128 µg/mL | –
19 | O=c1[nH]c(-c2ccc(Cl)cc2)nc2ccccc12 | > 128 µg/mL | – | > 128 µg/mL | 72%
20 | O=c1[nH]c(-c2ccc(-c3ccccc3)s2)nc2ccsc12 | > 128 µg/mL | 22 to 30 µM | ≥ 128 µg/mL | –

Row | SMILES | MIC (Escherichia coli [1]) | IC50 [2] | MIC (Staphylococcus aureus) | Activity (Escherichia coli [3])
21 | O=c1[nH]c(-c2cccc(Br)c2)nc2ccccc12 | > 128 µg/mL | – | > 128 µg/mL | 65%
22 | O=c1[nH]c(-c2ccc(O)cc2)nc2ccccc12 | > 128 µg/mL | – | > 128 µg/mL | 91%
23 | O=c1[nH]c(-c2ccc3c(c2)OCO3)nc2ccccc12 | > 128 µg/mL | – | > 128 µg/mL | 83%
24 | CC(C)n1c(-c2ccco2)nc2ccccc2c1=O | > 128 µg/mL | – | 32 µg/mL (≈ 126 µM) | 93%
25 | Cc1ccc(COc2ccc(-c3nc4ccccc4c(=O)[nH]3)cc2)cc1 | > 128 µg/mL | – | > 128 µg/mL | 97%
26 | O=c1[nH]c(-c2cccc(Cl)c2)nc2ccccc12 | > 128 µg/mL | – | > 128 µg/mL | 68%
27 | CN(C)c1ccc(-c2nc(O)c3ccccc3n2)cc1 | > 128 µg/mL | – | > 128 µg/mL | 97%
28 | O=c1[nH]c(-c2cn3ccsc3n2)nc2ccccc12 | > 128 µg/mL | – | 128 µg/mL (≈ 477 µM) | 82%
29 | COc1ccc(-c2nc(O)c3ccccc3n2)cc1 | > 128 µg/mL | – | > 128 µg/mL | 71%
30 | O=C(O)Cn1c(-c2ccoc2)nc2ccccc2c1=O | > 128 µg/mL | – | > 128 µg/mL | 74%
31 | O=Cc1ccc(-c2nc3ccccc3c(=O)[nH]2)cc1 | > 128 µg/mL | – | > 128 µg/mL | 58%
32 | O=c1[nH]c(-c2ccco2)nc2ccsc12 | > 128 µg/mL | 94 µM | > 128 µg/mL | –
33 | O=c1[nH]c(-c2cc(F)cc3c2OCOC3)nc2ccccc12 | > 128 µg/mL | – | > 128 µg/mL | 99%
34 | Oc1nc(-c2ccc(F)cc2)nc2ccccc12 | > 128 µg/mL | – | > 128 µg/mL | 89%
35 | O=c1[nH]c(-c2cccc(OCc3ccc(C(F)(F)F)cc3)c2)nc2ccccc12 | > 128 µg/mL | – | > 128 µg/mL | 88%
36 | O=c1[nH]c(/C=C/c2ccccc2)nc2ccccc12 | > 128 µg/mL | 51 µM | > 128 µg/mL | –
37 | O=c1[nH]c(-c2ccc([N+](=O)[O-])cc2)nc2ccccc12 | > 128 µg/mL | – | > 128 µg/mL | 99%
38 | N#Cc1ccc(-c2nc3ccccc3c(=O)[nH]2)cc1 | > 128 µg/mL | – | > 128 µg/mL | 54%
39 | O=C(O)c1ccc(COc2ccc(-c3nc4ccccc4c(=O)[nH]3)cc2)cc1 | > 128 µg/mL | – | > 128 µg/mL | 92%
40 | O=c1[nH]c(-c2cccc(OCc3cccc(Cl)c3)c2)nc2ccccc12 | > 128 µg/mL | – | > 128 µg/mL | 98%

Row | SMILES | MIC (Escherichia coli [1]) | IC50 [2] | MIC (Staphylococcus aureus) | Activity (Escherichia coli [3])
41 | O=c1[nH]c(-c2ccc(OCc3ccccc3)cc2)nc2ccsc12 | ≥ 128 µg/mL | 22 to 30 µM | ≥ 128 µg/mL | –
42 | O=c1[nH]c(-c2ccc(OCc3cccc(Cl)c3)cc2)nc2ccccc12 | > 128 µg/mL | – | > 128 µg/mL | 95%
43 | O=C(O)c1ccc(-c2nc3ccccc3c(=O)[nH]2)cc1 | > 128 µg/mL | – | > 128 µg/mL | 86%
44 | O=c1[nH]c(-c2ccc3cccc(O)c3n2)nc2ccccc12 | > 128 µg/mL | – | > 128 µg/mL | 84%
45 | O=c1[nH]c(-c2ccoc2)nc2ccccc12 | > 128 µg/mL | – | > 128 µg/mL | 91%
46 | O=c1[nH]c(-c2ccc(N3CCOCC3)nc2)nc2ccccc12 | > 128 µg/mL | – | > 128 µg/mL | 64%
47 | O=c1[nH]c(-c2ccnc(N3CCOCC3)c2)nc2ccccc12 | > 128 µg/mL | – | > 128 µg/mL | 70%
48 | O=c1[nH]c(-c2ccc3ccccc3n2)nc2ccccc12 | > 128 µg/mL | – | > 128 µg/mL | 100%
49 | O=c1[nH]c(-c2ccc(-c3cc[nH]n3)o2)nc2ccccc12 | > 128 µg/mL | – | > 128 µg/mL | 100%
50 | O=c1[nH]c(-c2cccc(Br)n2)nc2ccccc12 | > 128 µg/mL | – | > 128 µg/mL | 91%
51 | O=c1[nH]c(-c2cccc(O)c2)nc2ccccc12 | > 128 µg/mL | – | > 128 µg/mL | 80%
52 | O=c1[nH]c(-c2ccc(F)c(F)c2)nc2ccccc12 | > 128 µg/mL | – | > 128 µg/mL | 67%
53 | N#Cc1cccc(-c2nc3ccccc3c(=O)[nH]2)c1 | > 128 µg/mL | – | > 128 µg/mL | 62%
54 | O=c1[nH]c(-c2ccc(-c3ccncc3)cc2)nc2ccccc12 | > 128 µg/mL | – | > 128 µg/mL | 100%
55 | O=c1[nH]c(-c2ccc(Cn3cncn3)nc2)nc2ccccc12 | > 128 µg/mL | – | > 128 µg/mL | 80%
56 | COc1ccc2occ(-c3nc4ccccc4c(=O)[nH]3)c(=O)c2c1 | > 128 µg/mL | – | > 128 µg/mL | 100%
57 | O=c1c2ccccc2nc(-c2ccco2)n1Cc1ccccc1 | > 128 µg/mL | – | > 128 µg/mL | 100%
58 | COC(=O)Cn1c(-c2ccco2)nc2ccccc2c1=O | > 128 µg/mL | – | > 128 µg/mL | 66%
